In brackets after ≈: the same amount, converted by molar mass.
What was measured:
Penicillium ochrochloron [1] = experiment: Antifungal activity against Penicillium ochrochloron ATCC 9112 after 72 hrs by serial dilution method; format: functional; details: ATCC 9112, 72 h
Bacillus cereus [2] = experiment: Antibacterial activity against Bacillus cereus after 24 hrs by microdilution method; format: functional
Bacillus cereus [3] = experiment: Bactericidal activity against Bacillus cereus incubated for 24 hrs followed by serial sub-cultivation and measured after 24 hrs by microdilution method; format: functional
Micrococcus flavus [4] = experiment: Antibacterial activity against Micrococcus flavus ATCC 10240 after 24 hrs by microdilution method; format: functional; details: ATCC 10240, 24 h
Micrococcus flavus [5] = experiment: Bactericidal activity against Micrococcus flavus ATCC 10240 incubated for 24 hrs followed by serial sub-cultivation and measured after 24 hrs by microdilution method; format: functional
Staphylococcus aureus [6] = experiment: Antibacterial activity against Staphylococcus aureus ATCC 6538 after 24 hrs by microdilution method; format: functional; details: ATCC 6538, 24 h
Staphylococcus aureus [7] = experiment: Bactericidal activity against Staphylococcus aureus ATCC 6538 incubated for 24 hrs followed by serial sub-cultivation and measured after 24 hrs by microdilution method; format: functional
Listeria monocytogenes [8] = experiment: Antibacterial activity against Listeria monocytogenes NCTC 7973 after 24 hrs by microdilution method; format: functional; details: NCTC 7973, 24 h
Listeria monocytogenes [9] = experiment: Bactericidal activity against Listeria monocytogenes NCTC 7973 incubated for 24 hrs followed by serial sub-cultivation and measured after 24 hrs by microdilution method; format: functional
Escherichia coli [10] = experiment: Antibacterial activity against Escherichia coli ATCC 35210 after 24 hrs by microdilution method; format: functional; details: ATCC 35210, 24 h
Escherichia coli [11] = experiment: Bactericidal activity against Escherichia coli ATCC 35210 incubated for 24 hrs followed by serial sub-cultivation and measured after 24 hrs by microdilution method; format: functional
Enterobacter cloacae [12] = experiment: Antibacterial activity against Enterobacter cloacae after 24 hrs by microdilution method; format: functional
Enterobacter cloacae [13] = experiment: Bactericidal activity against Enterobacter cloacae incubated for 24 hrs followed by serial sub-cultivation and measured after 24 hrs by microdilution method; format: functional
Pseudomonas aeruginosa [14] = experiment: Antibacterial activity against Pseudomonas aeruginosa ATCC 27853 after 24 hrs by microdilution method; format: functional; details: ATCC 27853, 24 h
Pseudomonas aeruginosa [15] = experiment: Bactericidal activity against Pseudomonas aeruginosa ATCC 27853 incubated for 24 hrs followed by serial sub-cultivation and measured after 24 hrs by microdilution method; format: functional
Salmonella typhimurium [16] = experiment: Antibacterial activity against Salmonella typhimurium ATCC 13311 after 24 hrs by microdilution method; format: functional, Salmonella enterica subsp. enterica serovar Typhimurium; details: Salmonella enterica, ATCC 13311, 24 h
Salmonella typhimurium [17] = experiment: Bactericidal activity against Salmonella typhimurium ATCC 13311 incubated for 24 hrs followed by serial sub-cultivation and measured after 24 hrs by microdilution method; format: functional, Salmonella enterica subsp. enterica serovar Typhimurium
Aspergillus versicolor [18] = experiment: Antifungal activity against Aspergillus versicolor ATCC 11730 after 72 hrs by serial dilution method; format: functional; details: ATCC 11730, 72 h
Aspergillus fumigatus [19] = experiment: Antifungal activity against Aspergillus fumigatus after 72 hrs by serial dilution method; format: functional
Aspergillus fumigatus [20] = experiment: Fungicidal activity against Aspergillus fumigatus incubated for 72 hrs followed by serial sub-cultivation for 72 hrs and measured after 72 hrs by serial dilution method; format: functional
Aspergillus versicolor [21] = experiment: Fungicidal activity against Aspergillus versicolor ATCC 11730 incubated for 72 hrs followed by serial sub-cultivation for 72 hrs and measured after 72 hrs by serial dilution method; format: functional
Aspergillus ochraceus [22] = experiment: Antifungal activity against Aspergillus ochraceus ATCC 12066 after 72 hrs by serial dilution method; format: functional; details: ATCC 12066, 72 h
Aspergillus ochraceus [23] = experiment: Fungicidal activity against Aspergillus ochraceus ATCC 12066 incubated for 72 hrs followed by serial sub-cultivation for 72 hrs and measured after 72 hrs by serial dilution method; format: functional
Aspergillus niger [24] = experiment: Antifungal activity against Aspergillus niger ATCC 6275 after 72 hrs by serial dilution method; format: functional; details: ATCC 6275, 72 h
Aspergillus niger [25] = experiment: Fungicidal activity against Aspergillus niger ATCC 6275 incubated for 72 hrs followed by serial sub-cultivation for 72 hrs and measured after 72 hrs by serial dilution method; format: functional
Trichoderma viride [26] = experiment: Antifungal activity against Trichoderma viride IAM 5061 after 72 hrs by serial dilution method; format: functional; details: IAM 5061, 72 h
Trichoderma viride [27] = experiment: Fungicidal activity against Trichoderma viride IAM 5061 incubated for 72 hrs followed by serial sub-cultivation for 72 hrs and measured after 72 hrs by serial dilution method; format: functional
Talaromyces funiculosus [28] = experiment: Antifungal activity against Penicillium funiculosum ATCC 36839 after 72 hrs by serial dilution method; format: functional; details: ATCC 36839, 72 h
Talaromyces funiculosus [29] = experiment: Fungicidal activity against Penicillium funiculosum ATCC 36839 incubated for 72 hrs followed by serial sub-cultivation for 72 hrs and measured after 72 hrs by serial dilution method; format: functional
Penicillium ochrochloron [30] = experiment: Fungicidal activity against Penicillium ochrochloron ATCC 9112 incubated for 72 hrs followed by serial sub-cultivation for 72 hrs and measured after 72 hrs by serial dilution method; format: functional
Candida albicans [31] = experiment: Antifungal activity against Candida albicans after 72 hrs by serial dilution method; format: functional
Candida albicans [32] = experiment: Fungicidal activity against Candida albicans incubated for 72 hrs followed by serial sub-cultivation for 72 hrs and measured after 72 hrs by serial dilution method; format: functional

Structure (SMILES)	MIC (Penicillium ochrochloron [1])	MIC (Bacillus cereus [2])	MBC99.5 (Bacillus cereus [3])	MIC (Micrococcus flavus [4])	MBC99.5 (Micrococcus flavus [5])	MIC (Staphylococcus aureus [6])	MBC99.5 (Staphylococcus aureus [7])	MIC (Listeria monocytogenes [8])	MBC99.5 (Listeria monocytogenes [9])	MIC (Escherichia coli [10])	MBC99.5 (Escherichia coli [11])	MIC (Enterobacter cloacae [12])	MBC99.5 (Enterobacter cloacae [13])	MIC (Pseudomonas aeruginosa [14])	MBC99.5 (Pseudomonas aeruginosa [15])	MIC (Salmonella typhimurium [16])	MBC99.5 (Salmonella typhimurium [17])	MIC (Aspergillus versicolor [18])	MIC (Aspergillus fumigatus [19])	MFC99.5 (Aspergillus fumigatus [20])	other results
O=C(Cc1nsc2ccccc12)NN1C(=O)CSC1c1c(F)cccc1Cl (stereo not drawn)	49 µM (≈ 20.7 µg/mL)	147 µM (≈ 62 µg/mL)	36.7 ×10⁻² umol/ml	270 µM (≈ 114 µg/mL)	36.7 ×10⁻² umol/ml	147 µM (≈ 62 µg/mL)	19.6 ×10⁻² umol/ml	367 µM (≈ 155 µg/mL)	73.4 ×10⁻² umol/ml	270 µM (≈ 114 µg/mL)	36.7 ×10⁻² umol/ml	147 µM (≈ 62 µg/mL)	19.6 ×10⁻² umol/ml	270 µM (≈ 114 µg/mL)	36.7 ×10⁻² umol/ml	196 µM (≈ 82.7 µg/mL)	36.7 ×10⁻² umol/ml	49 µM (≈ 20.7 µg/mL)	98 µM (≈ 41.3 µg/mL)	19.6 ×10⁻² umol/ml	MFC99.5 (Aspergillus versicolor [21]): 9.8 ×10⁻² umol/ml; MIC (Aspergillus ochraceus [22]): 98 µM (≈ 41.3 µg/mL); MFC99.5 (Aspergillus ochraceus [23]): 19.6 ×10⁻² umol/ml; MIC (Aspergillus niger [24]): 196 µM (≈ 82.7 µg/mL); MFC99.5 (Aspergillus niger [25]): 36.7 ×10⁻² umol/ml; MIC (Trichoderma viride [26]): 38 µM (≈ 16 µg/mL); MFC99.5 (Trichoderma viride [27]): 4.9 ×10⁻² umol/ml; MIC (Talaromyces funiculosus [28]): 49 µM (≈ 20.7 µg/mL); MFC99.5 (Talaromyces funiculosus [29]): 9.8 ×10⁻² umol/ml; MFC99.5 (Penicillium ochrochloron [30]): 9.8 ×10⁻² umol/ml; MIC (Candida albicans [31]): 49 µM (≈ 20.7 µg/mL); MFC99.5 (Candida albicans [32]): 9.8 ×10⁻² umol/ml
O=C(NN1C(=O)CSC1c1ccccc1F)c1nsc2ccccc12 (stereo not drawn)	54 µM (≈ 20.2 µg/mL)	214 µM (≈ 79.9 µg/mL)	40.2 ×10⁻² umol/ml	295 µM (≈ 110 µg/mL)	40.2 ×10⁻² umol/ml	214 µM (≈ 79.9 µg/mL)	40.2 ×10⁻² umol/ml	214 µM (≈ 79.9 µg/mL)	40.2 ×10⁻² umol/ml	214 µM (≈ 79.9 µg/mL)	40.2 ×10⁻² umol/ml	214 µM (≈ 79.9 µg/mL)	40.2 ×10⁻² umol/ml	214 µM (≈ 79.9 µg/mL)	40.2 ×10⁻² umol/ml	214 µM (≈ 79.9 µg/mL)	40.2 ×10⁻² umol/ml	214 µM (≈ 79.9 µg/mL)	107 µM (≈ 40 µg/mL)	21.4 ×10⁻² umol/ml	MFC99.5 (Aspergillus versicolor [21]): 40.2 ×10⁻² umol/ml; MIC (Aspergillus ochraceus [22]): 80 µM (≈ 29.9 µg/mL); MFC99.5 (Aspergillus ochraceus [23]): 21.4 ×10⁻² umol/ml; MIC (Aspergillus niger [24]): 107 µM (≈ 40 µg/mL); MFC99.5 (Aspergillus niger [25]): 21.4 ×10⁻² umol/ml; MIC (Trichoderma viride [26]): 27 µM (≈ 10.1 µg/mL); MFC99.5 (Trichoderma viride [27]): 5.4 ×10⁻² umol/ml; MIC (Talaromyces funiculosus [28]): 107 µM (≈ 40 µg/mL); MFC99.5 (Talaromyces funiculosus [29]): 21.4 ×10⁻² umol/ml; MFC99.5 (Penicillium ochrochloron [30]): 10.7 ×10⁻² umol/ml; MIC (Candida albicans [31]): 107 µM (≈ 40 µg/mL); MFC99.5 (Candida albicans [32]): 21.4 ×10⁻² umol/ml
O=C(NN1C(=O)CSC1c1c(F)cccc1F)c1nsc2ccccc12 (stereo not drawn)	102 µM (≈ 39.9 µg/mL)	102 µM (≈ 39.9 µg/mL)	20.4 ×10⁻² umol/ml	102 µM (≈ 39.9 µg/mL)	20.4 ×10⁻² umol/ml	102 µM (≈ 39.9 µg/mL)	20.4 ×10⁻² umol/ml	204 µM (≈ 79.9 µg/mL)	40.8 ×10⁻² umol/ml	102 µM (≈ 39.9 µg/mL)	20.4 ×10⁻² umol/ml	102 µM (≈ 39.9 µg/mL)	20.4 ×10⁻² umol/ml	204 µM (≈ 79.9 µg/mL)	40.8 ×10⁻² umol/ml	204 µM (≈ 79.9 µg/mL)	40.8 ×10⁻² umol/ml	204 µM (≈ 79.9 µg/mL)	408 µM (≈ 160 µg/mL)	51 ×10⁻² umol/ml	MFC99.5 (Aspergillus versicolor [21]): 40.8 ×10⁻² umol/ml; MIC (Aspergillus ochraceus [22]): 51 µM (≈ 20 µg/mL); MFC99.5 (Aspergillus ochraceus [23]): 10.2 ×10⁻² umol/ml; MIC (Aspergillus niger [24]): 204 µM (≈ 79.9 µg/mL); MFC99.5 (Aspergillus niger [25]): 40.8 ×10⁻² umol/ml; MIC (Trichoderma viride [26]): 51 µM (≈ 20 µg/mL); MFC99.5 (Trichoderma viride [27]): 10.2 ×10⁻² umol/ml; MIC (Talaromyces funiculosus [28]): 102 µM (≈ 39.9 µg/mL); MFC99.5 (Talaromyces funiculosus [29]): 20.4 ×10⁻² umol/ml; MFC99.5 (Penicillium ochrochloron [30]): 51 ×10⁻² umol/ml; MIC (Candida albicans [31]): 408 µM (≈ 160 µg/mL); MFC99.5 (Candida albicans [32]): 51 ×10⁻² umol/ml
O=C(Cc1nsc2ccccc12)NN1C(=O)CSC1c1cccc(Cl)c1 (stereo not drawn)	74 µM (≈ 29.9 µg/mL)	198 µM (≈ 80 µg/mL)	37.2 ×10⁻² umol/ml	198 µM (≈ 80 µg/mL)	37.2 ×10⁻² umol/ml	100 µM (≈ 40.4 µg/mL)	37.2 ×10⁻² umol/ml	198 µM (≈ 80 µg/mL)	37.2 ×10⁻² umol/ml	198 µM (≈ 80 µg/mL)	37.2 ×10⁻² umol/ml	198 µM (≈ 80 µg/mL)	37.2 ×10⁻² umol/ml	198 µM (≈ 80 µg/mL)	37.2 ×10⁻² umol/ml	100 µM (≈ 40.4 µg/mL)	37.2 ×10⁻² umol/ml	100 µM (≈ 40.4 µg/mL)	100 µM (≈ 40.4 µg/mL)	37.2 ×10⁻² umol/ml	MFC99.5 (Aspergillus versicolor [21]): 19.2 ×10⁻² umol/ml; MIC (Aspergillus ochraceus [22]): 74 µM (≈ 29.9 µg/mL); MFC99.5 (Aspergillus ochraceus [23]): 10 ×10⁻² umol/ml; MIC (Aspergillus niger [24]): 100 µM (≈ 40.4 µg/mL); MFC99.5 (Aspergillus niger [25]): 19.2 ×10⁻² umol/ml; MIC (Trichoderma viride [26]): 50 µM (≈ 20.2 µg/mL); MFC99.5 (Trichoderma viride [27]): 10 ×10⁻² umol/ml; MIC (Talaromyces funiculosus [28]): 100 µM (≈ 40.4 µg/mL); MFC99.5 (Talaromyces funiculosus [29]): 19.8 ×10⁻² umol/ml; MFC99.5 (Penicillium ochrochloron [30]): 10 ×10⁻² umol/ml; MIC (Candida albicans [31]): 100 µM (≈ 40.4 µg/mL); MFC99.5 (Candida albicans [32]): 19.8 ×10⁻² umol/ml
